Experiments:
[1] = test system: electrical power of four rat brain areas (frontal cortex, hippocampus, striatum, reticular formation); assay: Tele-Stereo-EEG: continuous recording of intracerebral field potentials in the freely moving rat; assay type: in vivo
Text: Analysis of brain field potentials (“Tele-Stereo-EEG”) has been proven to be a very sensitive tool for the characterization of drug effects on the central nervous system (Dimpfel et al., 1986). After administration of a centrally active drug, quantitative changes in the brain field potentials can be considered as a characteristic fingerprint of that particular drug. “Fingerprints” of more than 100 compounds have been obtained including 8 established drug categories, e.g. analgesics, antidepressants, neuroleptics, stimulants, tranquilizers, sedatives and narcotics. Different dosages of the same drug cause quantitative changes in electrical power. […] Direct comparison with specific reference drugs, or by discriminant analysis with reference to an extensive fingerprint database, permits the detection of any possible similarities with established drugs. In general, “fingerprints” show prominent differences for drugs prescribed for different indications and are similar for drugs with similar indication (Dimpfel 2003). Furthermore, the pattern of EEG changes in the rat is a useful tool in predicting possible changes in the EEG power spectrum in humans.
Five intraperitoneal doses (30 mg/kg, 100 mg/kg, 300 mg/kg, 600 mg/kg and 1000 mg/kg body weight) of sodium (R)-3-hydroxybutyrate (BHB) were investigated using the “Tele-Stereo-EEG” animal model consisting of continuous recording of intracerebral field potentials in the freely moving rat. No effects could be measured using 1 ml/kg of a solution containing 20 mM of Na-bicarbonate (pH 8.4 or pH 12.5) for control purposes. […] Most marked changes were observed within the alpha2 range.
Adult Fisher rats (4-6 month of age and day—night converted, weight about 400 g) were implanted with 4 bipolar concentric steel electrodes using a stereotactic surgical procedure (Paxinos and Watson, 1982). All four electrodes were placed 3 mm lateral within the left hemisphere. Anterior coordinates were 12.2, 5.7, 9.7 and 3.7 mm for frontal cortex, hippocampus, striatum and reticular formation, respectively. A baseplate carrying the electrodes and a 5-pin-plug was fixed to the skull by dental cement attached to 3 steel screws fixed into the skull. Animals were given two weeks for recovery from the surgical procedure. Experiments were performed in compliance with the German Health Authority Guidelines and with local authority approval. EEG signals were recorded from frontal cortex, hippocampus, striatum and reticular formation and were amplified and processed as described previously (see Dimpfel et al., 1986). After automatic artefact rejection, signals were collected in sweeps of 4 s duration and submitted to Fast Fourier transformation. The resulting electrical power spectra were divided into 6 frequency ranges: delta (0.8-4.5 Hz); theta (4.75-6.75 Hz); alpha1 (7.00-9.50 Hz); alpha2 (9.75-12.50 Hz); beta (12.75-18.50 Hz); beta2 (18.75-35.00 Hz). […] In an off-line procedure spectra were averaged to give 15 minute or longer periods for further statistical analysis.
Five dosages of BHB (30, 100, 300, 600 and 1000 mg/kg body weight) (supplied by Solvias AG, CH 4002 Basel, Switzerland, batch No: SO-1058.047.1.120) and a vehicle control (0.9% w/v saline) were administered intraperitoneously to a group of 12 animals using a crossover design with at least 3 drug holidays in between the applications. Additional controls consisted of a 1 ml/kg of a solution containing 20 mM of Na-bicarbonate (adjusted to 8.4 and pH 12.5 obtained by titration with 1N NaOH) were tested to ascertain possible effects due to the alkaline pH of the BHB solution. After a pre-drug period of 45 minutes for baseline recording, drug effects were observed continuously for 300 minutes. Changes of electrical power (μV2W) are expressed as % of the 45 min. pre-drug values. Multivariate statistics were calculated according to Ahrens and Lauter (1974).

[2] = test system: EEG frequency bands (delta, theta activity); conditions: cited from earlier work
[3] = BHB 100 mg/kg i.p. single dose, rat
[4] = BHB 300 mg/kg i.p. single dose, rat

Question: With C[C@@H](O)CC(=O)[O-].[Na+] [BHB, sodium (R)-3-hydroxybutyrate] as the compound, how does the “discriminant analysis of EEG fingerprint (24 variables)” value ([1]; 6 frequency ranges, 4 brain areas, one time period) read?
Answer: close proximity to paroxetine and tramadol

Question: What about the “effects on EEG frequencies relative to the saline control” value ([1]; BHB 30 mg/kg body weight i.p. single dose, rat) of the same compound?
Answer: no statistically significant effects

Question: And the “duration of EEG effects” value [1, 3]?
Answer: 1 to 2 h

Question: And the “statistical significance of EEG changes” value [1, 3]?
Answer: not statistically significant

Question: And the “EEG frequency changes (electrical power, % of pre-drug values)” value ([1]; BHB 100 mg/kg i.p. single dose, rat, all regions, mainly alpha2, less delta)?
Answer: decrease of electrical power

Question: And the “EEG frequency changes (electrical power, % of pre-drug values)” value [1, 4]?
Answer: decreases in alpha2 power throughout all brain regions

Question: What about the “duration of pattern of EEG changes” value [1, 4] of the same compound?
Answer: two

Question: What about the “statistical significance of EEG changes” value ([1]; BHB 300 mg/kg i.p. single dose, rat, by brain region) of the same compound?
Answer: statistically significant for the frontal cortex, hippocampus and reticular formation, but not for the striatum

Question: What about the “duration of EEG effects” value ([1]; BHB 600 mg/kg i.p. single dose, rat, generally, except reticular formation) of the same compound?
Answer: 2 h

Question: What about the “statistical significance of EEG changes” value ([1]; BHB 600 mg/kg i.p. single dose, rat, including first hour within striatum) of the same compound?
Answer: statistically highly significant

Question: And the “duration of decreases of power in the reticular formation” value ([1]; BHB 600 mg/kg i.p. single dose, rat)?
Answer: persisted throughout the third hour

Question: What about the “EEG frequency changes (electrical power, % of pre-drug values)” value ([1]; BHB 1000 mg/kg i.p. single dose, rat) of the same compound?
Answer: more prominent decreases of power lasting into the third hour

Question: And the “statistical significance of EEG changes” value ([1]; BHB 1000 mg/kg i.p. single dose, rat, even 5th hour within reticular formation)?
Answer: statistically highly significant

Question: And the “duration of decreases of power in the reticular formation” value ([1]; BHB 1000 mg/kg i.p. single dose, rat, total experimental time)?
Answer: 5 h

Question: What about the “similarity of EEG electrical fingerprint to reference drugs” value ([1]; BHB at a lower dosage, vs galanthamine 3 mg/kg and paroxetine 2 mg/kg) of the same compound?
Answer: similarity to the “electrical fingerprints” of the acetylcholine esterase inhibitor galanthamine and also the antidepressant paroxetine

Question: And the “statistical significance of EEG changes” value ([1]; BHB dose levels of 300-1000 mg/kg i.p., rat)?
Answer: statistically highly significant

Question: What about the “similarity of EEG profile to reference drugs” value ([1]; higher dosages of BHB, vs tramadol 10 mg/kg) of the same compound?
Answer: reminiscent of the effects as observed after the administration of tramadol

Question: With Clc1cccc(Cl)c1N=C1NCCN1 [clonidine] as the compound, how does the “change of theta activity” value ([2]; drug down regulating the norepinephrine system (presynaptic adrenergic alpha2 receptor)) read?
Answer: increases

Question: Which “change of delta activity” value ([2]; drugs affecting the cholinergic system) does the source give for CN1[C@@H]2C[C@@H](OC(=O)[C@H](CO)c3ccccc3)C[C@H]1[C@@H]1O[C@@H]12 [scopolamine] here?
Answer: increase of power

— patent US20140296337A1, “CNS MODULATORS” (BTG International Limited, priority 2004, published 2014)
